Experiments:
Type in all cases: in vivo
Conditions in all cases: visually observed 20th to 23rd day after application
[1] = system: soybean (Glycine max Merr.): GLXMA; experiment: Test Example 1 pre-emergence herbicidal activity, GLXMA
From the text: (§1) Upland field soil was put into a 1/170,000 ha pot, and seeds of various plants {1. barnyardgrass (Echinochloa crus-galli L.): ECHCG, 2. crabgrass (Digitaria sanguinalis L.): DIGSA, 3. green foxtail (Setaria viridis L.): SETVI, 4. redroot pigweed (Amaranthus retroflexus L.): AMARE, 5. prickly sida (Sida spinosa L.): SEDSP, 6. velvetleaf (Abutilon theophrasti): ABUTH, 7. common cocklebur (Xanthium strumarium L.): XANST, 8. rice (Oryza sativa L.): ORYSA, 9. wheat (Triticum aestivum L.): TRZAX, 10. corn (Zea mays L.): ZEAMX, 11. soybean (Glycine max Merr.): GLXMA} were sown. Then, one day after the sowing, a wettable powder or emulsifiable concentrate having the compound of the present invention formulated in accordance with a usual formulation method, was weighed so that the active ingredient would be a predetermined amount and diluted with water in an amount of 500 L/ha. The herbicide adjusted was applied by a small size sprayer for preemergence treatment. On the 20th to 23rd day after the application of the herbicide, the growth of the respective plants was visually observed, and the herbicidal effects were evaluated by growth controlling degrees (%) ranging from 0 (equivalent to the untreated control) to 100 (complete kill), whereby the results shown in Table 4, were obtained. Compound Nos. in Table 4 correspond to Compound Nos. in Table 1 and 2 given hereinbefore.

[2] = system: corn (Zea mays L.): ZEAMX; experiment: Test Example 1 pre-emergence herbicidal activity, ZEAMX
From the text: as §1

[3] = system: redroot pigweed (Amaranthus retroflexus L.): AMARE; experiment: Test Example 1 pre-emergence herbicidal activity, AMARE
From the text: as §1

[4] = system: barnyardgrass (Echinochloa crus-galli L.): ECHCG; experiment: Test Example 1 pre-emergence herbicidal activity, ECHCG
From the text: as §1

[5] = system: green foxtail (Setaria viridis L.): SETVI; experiment: Test Example 1 pre-emergence herbicidal activity, SETVI
From the text: as §1

[6] = system: velvetleaf (Abutilon theophrasti): ABUTH; experiment: Test Example 1 pre-emergence herbicidal activity, ABUTH
From the text: as §1

[7] = system: crabgrass (Digitaria sanguinalis L.): DIGSA; experiment: Test Example 1 pre-emergence herbicidal activity, DIGSA
From the text: as §1

[8] = system: prickly sida (Sida spinosa L.): SEDSP; experiment: Test Example 1 pre-emergence herbicidal activity, SIDSP
From the text: as §1

[9] = system: rice (Oryza sativa L.): ORYSA; experiment: Test Example 1 pre-emergence herbicidal activity, ORYSA
From the text: as §1

[10] = system: wheat (Triticum aestivum L.): TRZAX; experiment: Test Example 1 pre-emergence herbicidal activity, TRZAX
From the text: as §1

For COc1c(Cl)cc(F)c(-c2nn(C)c(OC(F)F)c2Cl)c1NC(=O)CCc1ccc(F)cc1 [Compound 1-267], the “Pre-emergence Herbicidal Activity GLXMA (growth controlling degree)” value (shortened to “Pre-emergence Herbicidal Activity GLXMA”) ([1]; Rate 63 g a.i./ha) was 0%, the “Pre-emergence Herbicidal Activity ZEAMX (growth controlling degree)” value (shortened to “Pre-emergence Herbicidal Activity ZEAMX”) ([2]; Rate 63 g a.i./ha) was 0% and the “Pre-emergence Herbicidal Activity AMARE (growth controlling degree)” value (shortened to “Pre-emergence Herbicidal Activity AMARE”) ([3]; Rate 63 g a.i./ha) was 100%. For the same compound, the “Pre-emergence Herbicidal Activity ECHCG (growth controlling degree)” value (shortened to “Pre-emergence Herbicidal Activity ECHCG”) ([4]; Rate 63 g a.i./ha) was 70%, the “Pre-emergence Herbicidal Activity SETVI (growth controlling degree)” value (shortened to “Pre-emergence Herbicidal Activity SETVI”) ([5]; Rate 63 g a.i./ha) was 95% and the “Pre-emergence Herbicidal Activity ABUTH (growth controlling degree)” value (shortened to “Pre-emergence Herbicidal Activity ABUTH”) ([6]; Rate 63 g a.i./ha) was 100%. For the same compound, the “Pre-emergence Herbicidal Activity DIGSP (growth controlling degree)” value (shortened to “Pre-emergence Herbicidal Activity DIGSP”) ([7]; Rate 63 g a.i./ha) was 100%, the “Pre-emergence Herbicidal Activity SIDSP (growth controlling degree)” value (shortened to “Pre-emergence Herbicidal Activity SIDSP”) ([8]; Rate 63 g a.i./ha) was 80% and the “Pre-emergence Herbicidal Activity ORYSA (growth controlling degree)” value (shortened to “Pre-emergence Herbicidal Activity ORYSA”) ([9]; Rate 63 g a.i./ha) was 30%. The “Pre-emergence Herbicidal Activity TRZAX (growth controlling degree)” value (shortened to “Pre-emergence Herbicidal Activity TRZAX”) ([10]; Rate 63 g a.i./ha) was 20%.
With COc1c(Cl)cc(F)c(-c2nn(C)c(OC(F)F)c2Cl)c1NC(=O)c1ccc2ccccc2c1 [Compound 1-271] the “Pre-emergence Herbicidal Activity GLXMA” value ([1]; Rate 125 g a.i./ha) was 20%, the “Pre-emergence Herbicidal Activity ZEAMX” value ([2]; Rate 125 g a.i./ha) was 20% and the “Pre-emergence Herbicidal Activity AMARE” value ([3]; Rate 125 g a.i./ha) was 100%. For the same compound, the “Pre-emergence Herbicidal Activity ECHCG” value ([4]; Rate 125 g a.i./ha) was 70%, the “Pre-emergence Herbicidal Activity SETVI” value ([5]; Rate 125 g a.i./ha) was 90% and the “Pre-emergence Herbicidal Activity ABUTH” value ([6]; Rate 125 g a.i./ha) was 40%. For the same compound, the “Pre-emergence Herbicidal Activity DIGSP” value ([7]; Rate 125 g a.i./ha) was 100%, the “Pre-emergence Herbicidal Activity SIDSP” value ([8]; Rate 125 g a.i./ha) was 100% and the “Pre-emergence Herbicidal Activity ORYSA” value ([9]; Rate 125 g a.i./ha) was 60%. The “Pre-emergence Herbicidal Activity TRZAX” value ([10]; Rate 125 g a.i./ha) was 10%.
With COc1c(Cl)cc(F)c(-c2nn(C)c(OC(F)F)c2Cl)c1NC(=O)CCc1cccc(F)c1 [Compound 1-266] the “Pre-emergence Herbicidal Activity GLXMA” value ([1]; Rate 63 g a.i./ha) was 0%, the “Pre-emergence Herbicidal Activity ZEAMX” value ([2]; Rate 63 g a.i./ha) was 0% and the “Pre-emergence Herbicidal Activity AMARE” value ([3]; Rate 63 g a.i./ha) was 100%. For the same compound, the “Pre-emergence Herbicidal Activity ECHCG” value ([4]; Rate 63 g a.i./ha) was 60%, the “Pre-emergence Herbicidal Activity SETVI” value ([5]; Rate 63 g a.i./ha) was 80% and the “Pre-emergence Herbicidal Activity ABUTH” value ([6]; Rate 63 g a.i./ha) was 50%. The “Pre-emergence Herbicidal Activity DIGSP” value ([7]; Rate 63 g a.i./ha) was 100%, the “Pre-emergence Herbicidal Activity SIDSP” value ([8]; Rate 63 g a.i./ha) was 100% and the “Pre-emergence Herbicidal Activity ORYSA” value ([9]; Rate 63 g a.i./ha) was 10%. The “Pre-emergence Herbicidal Activity TRZAX” value ([10]; Rate 63 g a.i./ha) was 40%.
With COc1c(Cl)cc(F)c(-c2nn(C)c(OC(F)F)c2Cl)c1NC(=O)CCc1ccccc1F [Compound 1-269] the “Pre-emergence Herbicidal Activity GLXMA” value ([1]; Rate 63 g a.i./ha) was 0%, the “Pre-emergence Herbicidal Activity ZEAMX” value ([2]; Rate 63 g a.i./ha) was 10% and the “Pre-emergence Herbicidal Activity AMARE” value ([3]; Rate 63 g a.i./ha) was 100%. For the same compound, the “Pre-emergence Herbicidal Activity ECHCG” value ([4]; Rate 63 g a.i./ha) was 80%, the “Pre-emergence Herbicidal Activity SETVI” value ([5]; Rate 63 g a.i./ha) was 100% and the “Pre-emergence Herbicidal Activity ABUTH” value ([6]; Rate 63 g a.i./ha) was 80%. The “Pre-emergence Herbicidal Activity DIGSP” value ([7]; Rate 63 g a.i./ha) was 100%, the “Pre-emergence Herbicidal Activity SIDSP” value ([8]; Rate 63 g a.i./ha) was 100% and the “Pre-emergence Herbicidal Activity ORYSA” value ([9]; Rate 63 g a.i./ha) was 40%. For the same compound, the “Pre-emergence Herbicidal Activity TRZAX” value ([10]; Rate 63 g a.i./ha) was 40%.
In the case of COc1c(Cl)cc(F)c(-c2nn(C)c(OC(F)F)c2Cl)c1NC(=O)C(C)Cc1ccccc1 (centres unmarked) [Compound 1-268], the “Pre-emergence Herbicidal Activity GLXMA” value ([1]; Rate 63 g a.i./ha) is reported as 0%, the “Pre-emergence Herbicidal Activity ZEAMX” value ([2]; Rate 63 g a.i./ha) is reported as 0% and the “Pre-emergence Herbicidal Activity AMARE” value ([3]; Rate 63 g a.i./ha) is reported as 100%. For the same compound, the “Pre-emergence Herbicidal Activity ECHCG” value ([4]; Rate 63 g a.i./ha) was 40%, the “Pre-emergence Herbicidal Activity SETVI” value ([5]; Rate 63 g a.i./ha) was 80% and the “Pre-emergence Herbicidal Activity ABUTH” value ([6]; Rate 63 g a.i./ha) was 80%. For the same compound, the “Pre-emergence Herbicidal Activity DIGSP” value ([7]; Rate 63 g a.i./ha) was 100%, the “Pre-emergence Herbicidal Activity SIDSP” value ([8]; Rate 63 g a.i./ha) was 70% and the “Pre-emergence Herbicidal Activity ORYSA” value ([9]; Rate 63 g a.i./ha) was 30%. The “Pre-emergence Herbicidal Activity TRZAX” value ([10]; Rate 63 g a.i./ha) was 20%.

Source: patent US20050245399A1, “Pyrazole derivatives as herbicidal compositions containing them” (ISHIHARA SANGYO KAISHA, LTD., priority 2004, published 2005)
